Experimental data as given in ChEMBL document CHEMBL1150015, “Rational design of purine nucleoside phosphorylase inhibitors: Design of 2-(2-Haloethyl) and 2-ethenyl substituted quinazolinone alkylating agents” (Bioorg Med Chem Lett, 1992).

molecular target: T1, Purine nucleoside phosphorylase (Homo sapiens) (UniProt P00491); experiment: Second order rate constant for the inactivation of Purine Nucleoside Phosphorylase by compound in 0.05 M Phosphate Buffer and at a pH 7.4 (u=0.1 KCl) at 30.0 degree Centigrade
T1 sequence (whole entry): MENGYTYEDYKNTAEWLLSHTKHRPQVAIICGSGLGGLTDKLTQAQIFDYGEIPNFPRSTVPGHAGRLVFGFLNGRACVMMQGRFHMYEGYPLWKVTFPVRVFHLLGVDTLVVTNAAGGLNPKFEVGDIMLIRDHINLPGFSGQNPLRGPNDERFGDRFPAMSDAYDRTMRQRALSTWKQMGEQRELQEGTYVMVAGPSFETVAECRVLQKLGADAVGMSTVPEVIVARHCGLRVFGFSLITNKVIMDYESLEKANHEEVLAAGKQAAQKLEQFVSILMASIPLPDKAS

SMILES | k [M⁻¹ s⁻¹]
O=C1C=CC(=O)c2c(O)nc(-c3ccccc3)nc21 | 15.9
O=C1C=CC(=O)c2c(O)ncnc21 | 1.62
O=C1C=CC(=O)c2c(O)nc(CCBr)nc21 | 7.97
O=C1C=CC(=O)c2c(O)nc(CBr)nc21 | 3.7

Further lines, results first:

k [M⁻¹ s⁻¹] | SMILES
4.73 | Nc1nc(O)c2c(n1)C(=O)C=CC2=O
3.1 | C=Cc1nc(O)c2c(n1)C(=O)C=CC2=O
